Experimental findings from patent publication US20240140938A1, “PREPARATION OF TETRAHYDROINDAZOLE DERIVATIVES AS NOVEL DIACYLGLYCERIDE O-ACYLTRANSFERASE 2 INHIBITORS” (MERCK SHARP & DOHME LLC, priority 2020, published 2024) are described below.

Molecules are shown by their SMILES.

One assay deals with human DGAT2 (hDGAT2) (Homo sapiens (Human), UniProt Q96PD7). In words: DGAT2 Enzymatic Activity Assay. Conditions: hDGAT2 Sf-9 membrane prep; 13C18-triolein product by LC/MS/MS; 25 μM diolein, 5 μM 13C oleoyl-CoA. The class given is biochemical. In a few lines: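 Enzyme source was membrane fractions from Sf-9 cells infected with untagged hDGAT2 baculovirus. Reactions ran at room temperature, and product 13C18-triolein was quantified by LC/MS/MS against a 13C21-triolein internal standard. % inhibition was normalised to high and low controls, and IC50 derived from it.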
human DGAT2 (hDGAT2), sequence (Q96PD7 whole entry): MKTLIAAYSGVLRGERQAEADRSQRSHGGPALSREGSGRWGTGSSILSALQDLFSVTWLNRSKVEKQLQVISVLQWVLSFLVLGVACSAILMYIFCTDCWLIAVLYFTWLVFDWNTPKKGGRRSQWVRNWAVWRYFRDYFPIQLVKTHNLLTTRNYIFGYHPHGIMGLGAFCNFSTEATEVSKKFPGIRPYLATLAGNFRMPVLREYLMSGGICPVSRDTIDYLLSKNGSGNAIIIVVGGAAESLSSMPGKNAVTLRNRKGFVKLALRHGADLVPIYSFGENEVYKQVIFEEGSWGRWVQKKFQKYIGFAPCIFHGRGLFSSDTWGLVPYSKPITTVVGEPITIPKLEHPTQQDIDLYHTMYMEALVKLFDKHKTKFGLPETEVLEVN
What is called IC50 is the midpoint of a concentration-inhibition curve. On to `CC1(NC(=O)[C@@H]2CCc3c(-c4cc(OC(F)F)ccc4F)nn(S(=O)(=O)C4CC4)c3C2)CS(=O)(=O)C1` [Example 116, (R)-1-(cyclopropylsulfonyl)-3-(5-(difluoromethoxy)-2-fluorophenyl)-N-(3-methyl-1,1-dioxidothietan-3-yl)-4,5,6,7-tetrahydro-1H-indazole-6-carboxamide], for which the IC50 worked out at 0.0681 µM.

For the molecule `CC(C)n1nc(-c2cc(OC(F)F)ccc2F)c2c1CC(C(=O)N[C@@]1(C)CCS(=O)(=O)C1)CO2` (stereo partly drawn) [Example 122, 3-(5-(difluoromethoxy)-2-fluorophenyl)-1-isopropyl-N-((S)-3-methyl-1,1-dioxidotetrahydrothiophen-3-yl)-1,5,6,7-tetrahydropyrano[3,2-c]pyrazole-6-carboxamide], the IC50 amounted to 0.0058 µM. On to `CC(C)n1nc(-c2cc(OC(F)F)ccc2F)c2c1CC(C(=O)N[C@]1(C)CCS(=O)(=O)C1)CO2` (stereo partly drawn) [Example 123, 3-(5-(difluoromethoxy)-2-fluorophenyl)-1-isopropyl-N-((R)-3-methyl-1,1-dioxidotetrahydrothiophen-3-yl)-1,5,6,7-tetrahydropyrano[3,2-c]pyrazole-6-carboxamide], for which inhibition was half-maximal at 0.0243 µM (IC50). Consider `CC(C)n1nc(-c2cccc(C3CC3)c2)c2c1C[C@H](C(=O)NC1(C)CS(=O)(=O)C1)CO2` [Example 125, (S)-3-(3-cyclopropylphenyl)-1-isopropyl-N-(3-methyl-1,1-dioxidothietan-3-yl)-1,5,6,7-tetrahydropyrano[3,2-c]pyrazole-6-carboxamide], for which the IC50 came out at 0.0222 µM. Molecule `CC(C)n1nc(-c2cc(OC(F)F)ccc2F)c2c1C[C@H](C(=O)NC1(C)CS(=O)(=O)C1)OC2` [Example 127, (R)-3-(5-(difluoromethoxy)-2-fluorophenyl)-1-isopropyl-N-(3-methyl-1,1-dioxidothietan-3-yl)-1,4,6,7-tetrahydropyrano[4,3-c]pyrazole-6-carboxamide] registered an IC50 of 0.343 µM. Still for that read-out and setting: next, `CC(C)n1nc(-c2cc(C3CC3)ccc2F)c2c1C[C@H](C(=O)NC1(C)CS(=O)(=O)C1)OC2` [Example 128, (R)-3-(5-cyclopropyl-2-fluorophenyl)-1-isopropyl-N-(3-methyl-1,1-dioxidothietan-3-yl)-1,4,6,7-tetrahydropyrano[4,3-c]pyrazole-6-carboxamide]: 0.32 µM.

The same assay, now with this note: unit given as nm; hDGAT2 Sf-9 membrane prep; 13C18-triolein product by LC/MS/MS.
In turn, `CC1(NC(=O)C2Cc3c(c(-c4cccc(OC(F)F)c4)nn3C3CCOCC3)C(F)(F)C2)CCS(=O)(=O)C1` (centres unmarked) [Example 117, 3-(3-(difluoromethoxy)phenyl)-4,4-difluoro-N-(3-methyl-1,1-dioxidotetrahydrothiophen-3-yl)-1-(tetrahydro-2H-pyran-4-yl)-4,5,6,7-tetrahydro-1H-indazole-6-carboxamide] displayed a concentration for half-maximal inhibition (IC50) of 0.499 µM. On the same count and under the same terms, in the case of `CC1(NC(=O)C2COc3c(-c4cccc(OC(F)F)c4)nn(-c4ccc(F)cn4)c3C2)CCS(=O)(=O)C1` (centres unmarked) [Example 118, 3-(3-(difluoromethoxy)phenyl)-1-(5-fluoropyridin-2-yl)-N-(3-methyl-1,1-dioxidotetrahydrothiophen-3-yl)-1,5,6,7-tetrahydropyrano[3,2-c]pyrazole-6-carboxamide] it was 0.00044 µM.
